According to patent US20250177363A1, “SUBSTITUTED IMIDAZOPYRIDINYL COMPOUNDS USEFUL AS INHIBITORS OF TLR9” (Bristol-Myers Squibb Company, priority 2022, published 2025):

What was measured:
Assay type in all cases: cell-based
[1] = molecular target: T1, human TLR9 (Homo sapiens, UniProt Q9NR96); assay: TLR9 inhibition reporter assay (HEK-Blue, SEAP); details: HEK-Blue cells overexpressing human TLR9, ligand ODN2006 200 nM, 22 hour incubation
T1 construct: host or cells: HEK-Blue cells
T1 sequence (Q9NR96 26-1032): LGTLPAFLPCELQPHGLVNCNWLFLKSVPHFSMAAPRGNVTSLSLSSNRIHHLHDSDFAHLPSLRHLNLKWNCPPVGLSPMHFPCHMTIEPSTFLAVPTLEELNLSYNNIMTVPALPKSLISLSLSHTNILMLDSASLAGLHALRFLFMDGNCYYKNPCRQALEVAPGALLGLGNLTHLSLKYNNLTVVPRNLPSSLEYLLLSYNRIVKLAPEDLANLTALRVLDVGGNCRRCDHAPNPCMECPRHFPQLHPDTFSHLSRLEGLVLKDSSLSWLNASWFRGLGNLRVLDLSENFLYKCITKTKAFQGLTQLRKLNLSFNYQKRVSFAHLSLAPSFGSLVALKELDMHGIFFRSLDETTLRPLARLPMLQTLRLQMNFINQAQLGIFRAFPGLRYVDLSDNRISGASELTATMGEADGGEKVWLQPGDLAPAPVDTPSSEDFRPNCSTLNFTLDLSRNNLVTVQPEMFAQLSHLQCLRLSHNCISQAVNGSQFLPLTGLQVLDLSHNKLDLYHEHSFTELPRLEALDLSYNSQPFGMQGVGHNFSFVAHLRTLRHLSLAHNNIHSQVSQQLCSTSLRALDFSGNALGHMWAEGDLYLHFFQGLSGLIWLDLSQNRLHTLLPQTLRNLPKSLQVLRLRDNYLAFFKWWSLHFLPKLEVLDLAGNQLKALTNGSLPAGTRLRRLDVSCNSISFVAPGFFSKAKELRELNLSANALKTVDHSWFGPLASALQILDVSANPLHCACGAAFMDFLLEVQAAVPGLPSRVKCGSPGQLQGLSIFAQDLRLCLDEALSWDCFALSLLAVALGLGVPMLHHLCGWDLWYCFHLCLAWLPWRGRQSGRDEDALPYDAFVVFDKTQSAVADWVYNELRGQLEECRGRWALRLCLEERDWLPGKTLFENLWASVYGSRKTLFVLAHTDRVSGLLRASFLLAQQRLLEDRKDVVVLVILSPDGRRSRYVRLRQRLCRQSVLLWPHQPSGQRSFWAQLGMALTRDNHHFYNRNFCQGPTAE
Summary of the method: (§1)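 HEK-Blue cells expressing human TLR7, TLR8 or TLR9 with NF-κB/AP-1-driven SEAP reporter; compounds 0.85 nM–50 μM, pre-treated 60 min. Stimulation: gardiquimod 2.5 μM (TLR7), R848 14.25 μM (TLR8), ODN2006 200 nM (TLR9); SEAP read after 22 h at 37 °C. Percent inhibition normalized between agonist+DMSO and known-inhibitor wells.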

[2] = molecular target: T2, human TLR7 (Homo sapiens, UniProt Q9NYK1); assay: TLR7 inhibition reporter assay (HEK-Blue, SEAP); details: HEK-Blue cells overexpressing human TLR7, ligand gardiquimod 2.5 μM, 22 hour incubation
T2 construct: host or cells: HEK-Blue cells
T2 sequence (Q9NYK1 27-1049): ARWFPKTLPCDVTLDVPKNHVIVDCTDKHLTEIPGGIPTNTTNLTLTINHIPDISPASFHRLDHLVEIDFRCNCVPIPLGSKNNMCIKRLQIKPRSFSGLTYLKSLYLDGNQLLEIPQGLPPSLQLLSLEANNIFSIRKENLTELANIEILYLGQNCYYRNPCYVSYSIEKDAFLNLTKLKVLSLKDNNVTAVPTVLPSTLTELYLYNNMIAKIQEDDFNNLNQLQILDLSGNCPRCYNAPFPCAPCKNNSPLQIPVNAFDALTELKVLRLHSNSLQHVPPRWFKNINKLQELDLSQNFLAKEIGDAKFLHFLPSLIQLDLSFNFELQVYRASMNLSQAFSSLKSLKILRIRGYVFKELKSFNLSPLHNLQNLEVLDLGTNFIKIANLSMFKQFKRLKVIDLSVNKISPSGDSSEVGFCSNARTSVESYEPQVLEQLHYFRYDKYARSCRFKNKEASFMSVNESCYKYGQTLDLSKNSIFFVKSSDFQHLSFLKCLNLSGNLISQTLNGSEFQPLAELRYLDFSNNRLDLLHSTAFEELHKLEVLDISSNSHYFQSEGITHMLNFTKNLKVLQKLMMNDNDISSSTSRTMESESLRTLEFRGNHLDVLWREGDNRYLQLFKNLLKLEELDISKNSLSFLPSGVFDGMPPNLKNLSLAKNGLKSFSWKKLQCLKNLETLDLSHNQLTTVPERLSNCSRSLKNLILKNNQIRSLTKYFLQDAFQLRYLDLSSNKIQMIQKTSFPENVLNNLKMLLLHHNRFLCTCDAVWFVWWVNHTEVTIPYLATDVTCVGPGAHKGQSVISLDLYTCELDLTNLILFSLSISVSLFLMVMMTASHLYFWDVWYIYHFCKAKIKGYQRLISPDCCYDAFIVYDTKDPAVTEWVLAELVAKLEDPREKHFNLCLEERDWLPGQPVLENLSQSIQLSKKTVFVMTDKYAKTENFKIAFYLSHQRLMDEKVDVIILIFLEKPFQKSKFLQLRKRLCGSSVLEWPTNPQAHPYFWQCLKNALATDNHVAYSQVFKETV
Summary of the method: as §1

[3] = molecular target: T3, human TLR8 (Homo sapiens, UniProt Q9NR97); assay: TLR8 inhibition reporter assay (HEK-Blue, SEAP); details: HEK-Blue cells overexpressing human TLR8, ligand R848 14.25 μM, 22 hour incubation
T3 construct: host or cells: HEK-Blue cells
T3 sequence (Q9NR97 27-1041): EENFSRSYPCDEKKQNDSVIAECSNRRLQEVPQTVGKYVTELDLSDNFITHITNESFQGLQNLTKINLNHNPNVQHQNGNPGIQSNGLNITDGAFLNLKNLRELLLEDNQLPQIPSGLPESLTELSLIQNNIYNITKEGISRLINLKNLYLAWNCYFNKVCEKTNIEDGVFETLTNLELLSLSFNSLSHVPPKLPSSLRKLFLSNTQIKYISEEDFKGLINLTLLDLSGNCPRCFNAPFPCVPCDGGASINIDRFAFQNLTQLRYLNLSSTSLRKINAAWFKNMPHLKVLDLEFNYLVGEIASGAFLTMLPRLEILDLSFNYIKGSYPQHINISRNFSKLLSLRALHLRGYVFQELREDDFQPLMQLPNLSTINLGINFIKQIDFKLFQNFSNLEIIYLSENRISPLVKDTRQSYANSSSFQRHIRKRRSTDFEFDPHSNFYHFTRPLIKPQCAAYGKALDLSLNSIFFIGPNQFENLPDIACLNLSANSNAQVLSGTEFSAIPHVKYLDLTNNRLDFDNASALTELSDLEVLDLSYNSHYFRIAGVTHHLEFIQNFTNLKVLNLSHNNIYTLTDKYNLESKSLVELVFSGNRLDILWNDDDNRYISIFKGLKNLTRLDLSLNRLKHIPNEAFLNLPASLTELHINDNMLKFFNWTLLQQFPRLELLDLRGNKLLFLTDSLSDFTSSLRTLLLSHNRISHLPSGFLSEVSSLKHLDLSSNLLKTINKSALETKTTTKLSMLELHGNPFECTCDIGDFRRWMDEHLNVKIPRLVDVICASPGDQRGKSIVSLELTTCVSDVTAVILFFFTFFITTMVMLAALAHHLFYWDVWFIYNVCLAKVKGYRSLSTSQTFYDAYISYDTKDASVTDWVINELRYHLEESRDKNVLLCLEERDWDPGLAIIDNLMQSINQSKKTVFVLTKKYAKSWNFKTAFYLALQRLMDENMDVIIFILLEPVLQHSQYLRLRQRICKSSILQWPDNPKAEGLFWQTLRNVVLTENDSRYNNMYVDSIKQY
Summary of the method: as §1

| IC50 [1] [nM] | IC50 [2] [nM] | IC50 [3] [nM] | Compound |
| --- | --- | --- | --- |
| 61 | 1900 | > 50000 | Cc1cc(C2CCN(C3CCN(CC4CC4)CC3)CC2)nc2c1nc(-c1ccc(S(C)(=O)=O)cc1)n2C [Example 23, 5-(1′-(cyclopropylmethyl)-[1,4′-bipiperidin]-4-yl)-3,7-dimethyl-2-(4-(methylsulfonyl)phenyl)-3H-imidazo[4,5-b]pyridine] |
| 240 | 5400 | > 50000 | Cc1cc(C2CCN(C3CCN(C4CCC4)CC3)CC2)nc2c1nc(-c1ccc(S(C)(=O)=O)cc1)n2C [Example 24, 5-(1′-cyclobutyl-[1,4′-bipiperidin]-4-yl)-3,7-dimethyl-2-(4-(methylsulfonyl)phenyl)-3H-imidazo[4,5-b]pyridine] |
| 42 | 4100 | > 50000 | Cc1cc(C2CCN(C3CCN(C4CCOCC4)CC3)CC2)nc2c1nc(-c1ccc(S(C)(=O)=O)cc1)n2C [Example 25, 3,7-dimethyl-2-(4-(methylsulfonyl)phenyl)-5-(1′-(tetrahydro-2H-pyran-4-yl)-[1,4′-bipiperidin]-4-yl)-3H-imidazo[4,5-b]pyridine] |
| 42 | 1600 | > 50000 | Cc1cc(C2CCN(C3CC4CCC(C3)N4C3CCC3)CC2)nc2c1nc(-c1ccc(S(C)(=O)=O)cc1)n2C (stereo not drawn) [Example 32, 5-(1-(8-cyclobutyl-8-azabicyclo[3.2.1]octan-3-yl)piperidin-4-yl)-3,7-dimethyl-2-(4-(methylsulfonyl)phenyl)-3H-imidazo[4,5-b]pyridine] |
| 69 | 1500 | 19000 | Cc1cc(C2CCN(C3CC4CCC(C3)N4C3CCC3)CC2)nc2c1nc(-c1ccc(S(C)(=O)=O)cc1)n2C (stereo not drawn) [Example 33, 5-(1-(8-cyclobutyl-8-azabicyclo[3.2.1]octan-3-yl)piperidin-4-yl)-3,7-dimethyl-2-(4-(methylsulfonyl)phenyl)-3H-imidazo[4,5-b]pyridine] |
| 140 | 1000 | > 50000 | COc1ccc(-c2nc3c(C)cc(C4CCN([C@H]5C[C@@H]6CN(C(C)C)C[C@@H]6C5)CC4)nc3n2C)cc1OC [Example 36, 2-(3,4-dimethoxyphenyl)-5-(1-((3aR,5s,6aS)-2-isopropyloctahydrocyclopenta[c]pyrrol-5-yl)piperidin-4-yl)-3,7-dimethyl-3H-imidazo[4,5-b]pyridine] |
| 100 | 1200 | > 50000 | COc1ccc(-c2nc3c(C)cc(C4CCN([C@H]5C[C@@H]6CN(CC(C)C)C[C@@H]6C5)CC4)nc3n2C)cc1OC [Example 37, 2-(3,4-dimethoxyphenyl)-5-(1-(2-isobutyloctahydrocyclopenta[c]pyrrol-5-yl)piperidin-4-yl)-3,7-dimethyl-3H-imidazo[4,5-b]pyridine] |
| 80 | 740 | > 50000 | COc1ccc(-c2nc3c(C)cc(C4CCN([C@H]5C[C@@H]6CN(CC7CC7)C[C@@H]6C5)CC4)nc3n2C)cc1OC [Example 38, 5-(1-(2-(cyclopropylmethyl)octahydrocyclopenta[c]pyrol-5-yl)piperidin-4-yl)-2-(3,4-dimethoxyphenyl)-3,7-dimethyl-3H-imidazo[4,5-b]pyridine] |
| 130 | 310 | 24000 | COc1ccc(-c2nc3c(C)cc(C4CCN([C@H]5C[C@@H]6CN(C7CCC7)C[C@@H]6C5)CC4)nc3n2C)cc1OC [Example 39, 5-(1-(2-cyclobutyloctahydrocyclopenta[c]pyrrol-5-yl)piperidin-4-yl)-2-(3,4-dimethoxyphenyl)-3,7-dimethyl-3H-imidazo[4,5-b]pyridine] |
| 220 | 1300 | > 50000 | COc1ccc(-c2nc3c(C)cc(C4CCN([C@H]5C[C@@H]6CN(C7CCOCC7)C[C@@H]6C5)CC4)nc3n2C)cc1OC [Example 40, 2-(3,4-dimethoxyphenyl)-3,7-dimethyl-5-(1-(2-(tetrahydro-2H-pyran-4-yl)octahydrocyclopenta[c]pyrrol-5-yl)piperidin-4-yl)-3H-imidazo[4,5-b]pyridine] |
| 73 | 480 | > 50000 | COCCN1C[C@H]2C[C@H](N3CCC(c4cc(C)c5nc(-c6ccc(OC)c(OC)c6)n(C)c5n4)CC3)C[C@H]2C1 [Example 41, 2-(3,4-dimethoxyphenyl)-5-(1-((3aR,5s,6aS)-2-(2-methoxyethyl)octahydrocyclopenta[c]pyrrol-5-yl)piperidin-4-yl)-3,7-dimethyl-3H-imidazo[4,5-b]pyridine] |
| 84 | 17000 | > 50000 | COc1cc(-c2nc3c(C)cc(C4CCN([C@H]5C[C@@H]6CN(C7CCC7)C[C@@H]6C5)CC4)nc3n2C)cn2ncnc12 [Example 42, 5-(1-((3aR,5s,6aS)-2-cyclobutyloctahydrocyclopenta[c]pyrrol-5-yl)piperidin-4-yl)-2-(8-methoxy-[1,2,4]triazolo[1,5-a]pyridin-6-yl)-3,7-dimethyl-3H-imidazo[4,5-b]pyridine] |
